Data on one compound can be found in patent US11572590B2, “Methods for evaluating tumor cell spheroids using 3D microfluidic cell culture device” (Dana-Farber Cancer Institute, Inc., priority 2017, dated 2023).

Read-outs that look alike come from different tables or passages of the source.

For series [1], the target named is off-target kinases (Homo sapiens, UniProt P00533, DEL746-750). Nature of the series: SelectScreen Kinase Profiling, single point inhibition and IC50 for off-target kinases. The format is biochemical. The arrangement: other: EGFR (ErbB1) d746-750; mutant y; 1000 μM. Particulars: EGFR (ErbB1) d746-750, mutant y, LanthaScreen Binding. As to the method:
(§1) Biochemical single point inhibition and IC50 concentrations for TBK1, IKKε (IKBKE), and off-target kinases were determined at ThermoFisher Scientific using SelectScreen Kinase Profiling Services (Madison, Wis., USA) (Tables S4A and S4B-1-7). To determine cellular potency, the human colorectal cancer carcinoma cell line HCT116 (ATCC, Manassas, Va.) was maintained in T175 flasks in complete RPMI medium; RPMI 1640 supplemented with 10% FBS, 1× Penicillin-Streptomycin solution and 1×MEM (non-essential amino acids). HCT116 cells were grown to 90-95% confluency in T175 flasks containing complete RPMI medium and transfected in bulk using Lipofectamine 2000 (Invitrogen, Carlsbad, Calif.) with 70 μg of ISG54-luciferase reporter plasmid (Elim Biopharmaceuticals Inc., Hayward, Calif.). The reporter plasmid contains a luciferase gene expression cassette under the transcriptional regulation of the promoter of the human interferon stimulated gene 54 (ISG54). […] The assay plates were incubated for 5 hours at 37° C., followed by addition of One-Glo luciferase firefly reagent (Promega, Madison, Wis.) at 1:1 volume/well and luminescence was measured in an EnVision Multilabel Plate Reader (PerkinElmer, Santa Clara, Calif.). The EC50 values were calculated from the fit of the dose-response curves to a four-parameter equation. […]
In general terms: Time-resolved FRET reads energy transfer from a long-lived donor to a nearby acceptor.

Series [2] deals with off-target kinases (Homo sapiens, UniProt P07948). The series is described as above. Particulars: LYN B, ATP Km app, ZLYTE. The format is biochemical. The arrangement: other: LYN B; 1000 μM; ATP Km app; ZLYTE. On the procedure: as §1, with “(ISG54). Transfection of the cells was allowed to take place for 6 hours, after which the cells were harvested by treatment with 0.25% trypsin EDTA (Corning Inc., Corning, N.Y.). Trypsinized cells were added to 384-well poly-d-lysine treated black clear bottom tissue culture assay plates (Greiner Bio-One GmbH, Kremsmünster, Austria) at a density of 20,000 cells/well in 80 μL of complete RPMI medium and incubated overnight. After 16-18 hours post-transfection, the assay plates were washed with PBS (Corning Inc., Corning, N.Y.), followed by addition of 80 μL/well of serum-free RPMI 1640 medium containing 1× Penicillin-Streptomycin solution, 1×MEM and 350 nL of DMSO or titrations of Compound 1.” for “(ISG54).”
off-target kinases (Homo sapiens, UniProt P07948), sequence (P07948 1-491 isoform P07948-2): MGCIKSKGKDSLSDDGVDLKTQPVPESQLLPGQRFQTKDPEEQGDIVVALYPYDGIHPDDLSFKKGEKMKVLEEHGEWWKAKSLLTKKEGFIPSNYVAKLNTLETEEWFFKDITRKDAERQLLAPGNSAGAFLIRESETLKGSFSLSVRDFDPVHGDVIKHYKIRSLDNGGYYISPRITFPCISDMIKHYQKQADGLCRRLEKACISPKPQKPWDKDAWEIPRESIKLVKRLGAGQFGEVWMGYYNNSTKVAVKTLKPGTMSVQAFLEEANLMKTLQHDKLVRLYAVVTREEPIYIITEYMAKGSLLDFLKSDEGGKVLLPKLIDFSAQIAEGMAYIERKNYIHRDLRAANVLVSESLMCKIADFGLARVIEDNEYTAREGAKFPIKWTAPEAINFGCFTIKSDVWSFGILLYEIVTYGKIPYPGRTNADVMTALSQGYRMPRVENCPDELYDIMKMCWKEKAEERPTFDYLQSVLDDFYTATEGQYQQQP

Series [3] relates to CT26 spheroids lacking immune cells. Nature of the series: Viability of CT26 spheroids lacking immune cells. The format is cell-based. As to the method: Fresh tumor specimens (murine and human patients) were received in media (DMEM) on ice and minced in a 10 cm dish (on ice) using sterile forceps and scalpel. Minced tumor was resuspended in DMEM ([…], […] sodium pyruvate, 1:100 penicillin-streptomycin) (Corning CellGro, Manassas, Va.) +10% FBS (Gemini Bio-Products, West Sacramento, Calif.), 100 U/mL collagenase type IV (Life Technologies, Carlsbad, Calif.), and 15 mM HEPES (Life Technologies, Carlsbad, Calif.), except for CT26 tumors that were prepared in RPMI. Samples were pelleted and resuspended in 10-20 mL media. Red blood cells were removed from visibly bloody samples using RBC Lysis Buffer (Boston Bio-Products, Ashland, Mass.). […]
Dual labeling was performed by loading microfluidic device with Nexcelom ViaStain™ AO/PI Staining Solution (Nexcelom, CS2-0106). Following incubation with the dyes (20 minutes at room temperature in the dark), images were captured on a Nikon Eclipse 80i fluorescence microscope equipped with Z-stack (Prior) and CoolSNAP CCD camera (Roper Scientific). […] Live and dead cell quantitation was performed by measuring total cell area of each dye. […]

off-target kinases (Homo sapiens, UniProt P00533, DEL746-750), sequence (P00533 with tags, fused parts or gaps DEL746-750): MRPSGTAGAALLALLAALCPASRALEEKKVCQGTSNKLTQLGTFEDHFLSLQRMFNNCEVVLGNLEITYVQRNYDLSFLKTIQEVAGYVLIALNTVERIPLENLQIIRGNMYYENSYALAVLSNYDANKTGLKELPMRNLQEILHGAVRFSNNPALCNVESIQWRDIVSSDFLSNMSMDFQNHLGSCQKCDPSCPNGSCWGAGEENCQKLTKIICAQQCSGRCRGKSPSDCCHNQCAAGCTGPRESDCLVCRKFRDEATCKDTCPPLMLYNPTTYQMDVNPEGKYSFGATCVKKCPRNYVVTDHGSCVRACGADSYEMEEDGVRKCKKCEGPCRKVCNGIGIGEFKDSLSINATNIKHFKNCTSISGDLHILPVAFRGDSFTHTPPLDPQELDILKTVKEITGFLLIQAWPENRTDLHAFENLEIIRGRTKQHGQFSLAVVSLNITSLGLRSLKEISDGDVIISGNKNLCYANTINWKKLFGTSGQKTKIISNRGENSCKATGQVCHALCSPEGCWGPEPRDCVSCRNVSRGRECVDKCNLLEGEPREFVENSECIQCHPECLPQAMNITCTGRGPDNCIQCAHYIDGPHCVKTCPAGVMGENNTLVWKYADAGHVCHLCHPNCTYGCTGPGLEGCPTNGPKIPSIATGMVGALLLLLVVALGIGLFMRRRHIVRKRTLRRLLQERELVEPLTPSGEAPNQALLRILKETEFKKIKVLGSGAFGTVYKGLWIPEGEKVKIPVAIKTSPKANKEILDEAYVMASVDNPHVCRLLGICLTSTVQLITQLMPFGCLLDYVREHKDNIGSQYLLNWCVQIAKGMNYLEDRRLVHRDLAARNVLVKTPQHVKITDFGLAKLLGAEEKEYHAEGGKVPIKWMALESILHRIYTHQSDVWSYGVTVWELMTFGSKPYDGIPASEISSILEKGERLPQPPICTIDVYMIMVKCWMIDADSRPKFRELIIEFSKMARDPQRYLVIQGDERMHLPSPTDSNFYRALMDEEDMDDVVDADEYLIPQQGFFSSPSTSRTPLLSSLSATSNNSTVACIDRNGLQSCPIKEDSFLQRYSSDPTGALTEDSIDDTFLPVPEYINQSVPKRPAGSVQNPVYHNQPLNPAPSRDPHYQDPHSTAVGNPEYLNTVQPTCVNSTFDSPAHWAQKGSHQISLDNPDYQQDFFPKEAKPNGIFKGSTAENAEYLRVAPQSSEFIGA

Consider `N#Cc1cc(-c2ncnc(Nc3ccc(N4CCN(C5COC5)CC4)cc3)n2)ccc1OC1CCOCC1` [Compound 1, 5-(4-((4-(4-(oxetan-3-yl)piperazin-1-yl)phenyl)amino)-1,3,5-triazin-2-yl)-2-((tetrahydro-2H-pyran-4-yl)oxy)benzonitrile], for which the inhibition (usually the share of the control response that was lost under treatment) amounted to 14% on off-target kinases [1] (read-out: % Inhibition 1); 13% at off-target kinases [1] (read-out: % Inhibition 2); 56% at off-target kinases [2] (read-out: % Inhibition 1); 50% at off-target kinases [2] (read-out: % Inhibition 2); 53% at off-target kinases [2] (read-out: % Inhibition Avg). Besides, the “cytotoxic effects on CT26 cell line spheroids (viability)” value in series [3] is “without cytotoxic effects”.
